In article PMC3432695 (European journal of medicinal chemistry, 2012):
In brackets after ≈: the same amount, converted by molar mass. Several values for one entry are separate records, joined by “and”; a condition that tells them apart may be missing. Equal values may be shown once.

Legend:
[1] = Chemical; format: physicochemical; settings: for t1/2 PBS: PBS pH 7.4, 37 °C, 2 mM
[2] = tested on: TK1 (+) L929 cells; settings: cited from earlier work; for in vitro uptake in TK1 (+) L929 cells relative to TK1 (−) L929 cells: 24 h incubation in compound containing medium; for retention in cells: incubation continued for 12 h in compound free medium
[3] = tested on: TK1 (+)- or TK1 (−) L929 tumors; settings: intratumoral injection, subcutaneous tumors in nude mice; cited from earlier work
[4] = Solubility in PBS at pH 5, pH 6 and pH 7.4; format: physicochemical; settings: for solubility PBS pH 5: PBS pH 5, 37 °C; for solubility PBS pH 5 / solubility PBS pH 6 / solubility PBS pH 7.4: hydrochloride salts of 12, 15, 18, 21; for solubility PBS pH 6: PBS pH 6, 37 °C; for solubility PBS pH 7.4: PBS pH 7.4, 37 °C; for solubility at 4 h: PBS, 37 °C, thermodynamic from solid
[5] = tested on: intracranial RG2 glioma; settings: cited from earlier work
[6] = Stability; format: in vitro ADME, Bovine; settings: for t1/2 Bovine serum: 37 °C, 2 mM; for hydrolysis rate in Bovine serum relative to rate in PBS: times faster in Bovine serum than in PBS
[7] = Stability in Bovine CSF; format: in vitro ADME; settings: for t1/2 Bovine CSF: 37 °C, 2 mM
[8] = ref Song et al. 15; cited from earlier work
[9] = ref Song et al. 15; cited from earlier work; remark: listed apart in the source
[10] = cited from earlier work

Compound	t1/2 PBS [1]	solubility PBS pH 5 [4]	solubility PBS pH 6 [4]	solubility PBS pH 7.4 [4]	t1/2 Bovine serum [6]	hydrolysis rate in Bovine serum relative to rate in PBS [6]	t1/2 Bovine CSF [7]	also measured
3'-L-Valyl-3-(5-{o-carboran-1-yl}pentan-1-yl)thymidine [Compound 11]	29.79 ± 0.42 h							
3-[5-{2-(2,3-dihydroxyprop-1-yl)-o-carboran-1-yl}pentan-1-yl]thymidine [Compound 2]		0.007–0.01 g/L	0.007–0.01 g/L	0.007–0.01 g/L				in vitro uptake in TK1 (+) L929 cells relative to TK1 (−) L929 cells [2]: 5–10; retention in cells [2]: retained only in the former cell line; boron concentration in TK1 (+) relative to TK1 (−) L929 tumors [3]: ~ 3 times; survival times relative to rats that received BNCT without compound ([5]; intracranial injection prior to BNCT, rats with intracranial RG2 glioma): about 2 times; pathologic alterations in rat brains ([5]; rat, in vivo): no significant pathologic alterations
5'-L-Valyl-3-(5-{o-carboran-1-yl}pentan-1-yl)thymidine [Compound 12]	25.59 ± 0.61 h	26.30 ± 0.90 g/L	3.70 ± 0.31 g/L	1.31 ± 0.05 g/L	22.21 ± 0.52 h	1.2 times	25.47 ± 0.10 h	solubility relative to compounds 15 and 21 ([4]; PBS pH 5, 6, 7.4): 1–7 times
3'-Glycinyl-3-(5-{o-carboran-1-yl}pentan-1-yl)thymidine [Compound 14]	1.51 ± 0.11 h							
5'-Glycinyl-3-(5-{o-carboran-1-yl}pentan-1-yl)thymidine [Compound 15]	0.70 ± 0.04 h	10.99 ± 0.20 g/L	2.06 ± 0.11 g/L	0.19 ± 0.01 g/L	0.69 ± 0.02 h	did not change	0.96 ± 0.04 h	
3',5'-Di-L-valyl-3-(5-{o-carboran-1-yl}pentan-1-yl)thymidine [Compound 13]	12.91 ± 0.17 h							
3'-L-Glutam-5-yl-3-(5-{o-carboran-1-yl}pentan-1-yl)thymidine [Compound 17]	26.91 ± 0.71 h							
3',5'-Di-glycinyl-3-(5-{o-carboran-1-yl}pentan-1-yl)thymidine [Compound 16]	0.22 ± 0.03 h							
3',5'-Di-L-glutam-5-yl-3-(5-{o-carboran-1-yl}pentan-1-yl)thymidine [Compound 19]	3.42 ± 0.10 h							
5'-L-Glutam-5-yl-3-(5-{o-carboran-1-yl}pentan-1-yl)thymidine [Compound 18]	11.16 ± 0.37 h	1.13 g/L and 1.16 ± 0.04 g/L	1.13 ± 0.06 g/L	1.77 ± 0.08 g/L	0.85 ± 0.12 h	13.1 times	1.85 ± 0.11 h	hydrolysis rate in CSF relative to PBS ([7]; times higher in Bovine CSF than in PBS): 6 times
CC(C)[C@H](N)C(=O)OCCOCn1cnc2c(=O)[nH]c(N)nc21 [Compound 4, valacyclovir, reference compound]						2.2 times		half-life at 2 mM ([1]; PBS, pH 7.4): 13.6 ± 0.49 h; half-life for the hydrolysis in human plasma [8]: 5.2 h; half-life for the chemical hydrolysis [9]: 17.15 h; water solubility relative to parental nucleoside analogue (acyclovir) [10]: about 130 times; half-life at 2 mM ([6]; bovine, bovine serum): 6.2 ± 0.17 h; solubility relative to 12 ([4]; PBS pH 5, 6, 7.4): 1.5–3 times; solubility at 4 h ([4]; pH 5, aqueous buffer): 72.7 ± 0.4 mg/mL (≈ 224 mM); solubility at 4 h ([4]; pH 6, aqueous buffer): 13.4 ± 0.26 mg/mL (≈ 41.4 mM); solubility at 4 h ([4]; pH 7.4, aqueous buffer): 1.91 ± 0.06 mg/mL (≈ 5.89 mM); half-life at 2 mM ([7]; bovine, bovine CSF): 7.59 ± 0.12 h
3-(5-{o-Carboran-1-yl}pentan-1-yl)thymidine [Compound 1]		0.003–0.005 g/L	0.003–0.005 g/L	0.003–0.005 g/L				in vitro uptake in TK1 (+) L929 cells relative to TK1 (−) L929 cells [2]: 5–10; retention in cells [2]: retained only in the former cell line
5'-Glycinyl-3-[5-(2-{2,3-dihydroxyprop-1-yl}-o-carboran-1-yl)pentan-1-yl]thymidine [Compound 21]	2.21 ± 0.15 h	11.18 ± 0.21 g/L	3.60 ± 0.12 g/L	0.62 ± 0.03 g/L	1.51 ± 0.04 h	1.5 times	2.11 ± 0.14 h	
